Conditions: Cohort 3 400 mg QD
Method: All responses were assessed by the investigators.
Reported Adverse Events. […] All-cause mortality data collected during the study were assessed for all enrolled participants. Disease progression related death was not reported as AE.
Number of Participants With Treatment-emergent Adverse Events (TEAEs), and Treatment-emergent Serious Adverse Events (TESAEs). […] TEAEs included both SAEs and non-SAEs. […] Analysis was performed on safety population which included all participants who received at least 1 dose of study medication.

SMILES: CC(C)NC(=O)COc1cccc(-c2nc(Nc3ccc4[nH]ncc4c3)c3ccccc3n2)c1 [Belumosudil, 2-{3-[4-(1H-indazol-5-ylamino)-2-quinazolinyl]phenoxy}-N-(propan-2-yl) acetamide]
- Glaucoma: Affected/At Risk (%): (0%)
- Glucose urine present: # Events: 3
- Glucose urine present: Affected/At Risk: 1/21
- Glucose urine present: Affected/At Risk (%): (4.76%)
- Graft versus host disease in gastrointestinal tract: # Events: 0
- Graft versus host disease in gastrointestinal tract: Affected/At Risk: 0/21
- Graft versus host disease in gastrointestinal tract: Affected/At Risk (%): (0%)
- Gynaecomastia: # Events: 0
- Gynaecomastia: Affected/At Risk: 0/21
- Gynaecomastia: Affected/At Risk (%): (0%)
- Haematuria: # Events: 2
- Haematuria: Affected/At Risk: 1/21
- Haematuria: Affected/At Risk (%): (4.76%)
- Hair growth abnormal: # Events: 0
- Hair growth abnormal: Affected/At Risk: 0/21
- Hair growth abnormal: Affected/At Risk (%): (0%)
- Headache: # Events: 8
- Headache: Affected/At Risk: 6/21
- Headache: Affected/At Risk (%): (28.57%)
- Hodgkin's disease recurrent: # Events: 0
- Hodgkin's disease recurrent: Affected/At Risk: 0/21
- Hodgkin's disease recurrent: Affected/At Risk (%): (0%)
- Hordeolum: # Events: 1
- Hordeolum: Affected/At Risk: 1/21
- Hordeolum: Affected/At Risk (%): (4.76%)
- Hot flush: # Events: 0
- Hot flush: Affected/At Risk: 0/21
- Hot flush: Affected/At Risk (%): (0%)
- Hyperglycemia: # Events: 8
- Hyperglycemia: Affected/At Risk: 3/21
- Hyperglycemia: Affected/At Risk (%): (14.29%)
- Hyperhidrosis: # Events: 1
- Hyperhidrosis: Affected/At Risk: 1/21
- Hyperhidrosis: Affected/At Risk (%): (4.76%)
- Hyperkalaemia: # Events: 4
- Hyperkalaemia: Affected/At Risk: 3/21
- Hyperkalaemia: Affected/At Risk (%): (14.29%)
- Hypertension: # Events: 6
- Hypertension: Affected/At Risk: 4/21
- Hypertension: Affected/At Risk (%): (19.05%)
- Hyperthyroidism: # Events: 1
- Hyperthyroidism: Affected/At Risk: 1/21
- Hyperthyroidism: Affected/At Risk (%): (4.76%)
- Hypertriglyceridaemia: # Events: 0
- Hypertriglyceridaemia: Affected/At Risk: 0/21
- Hypertriglyceridaemia: Affected/At Risk (%): (0%)
- Hyperuricaemia: # Events: 5
- Hyperuricaemia: Affected/At Risk: 3/21
- Hyperuricaemia: Affected/At Risk (%): (14.29%)
- Hypoaesthesia: # Events: 1
- Hypoaesthesia: Affected/At Risk: 1/21
- Hypoaesthesia: Affected/At Risk (%): (4.76%)
- Hypocalcaemia: # Events: 1
- Hypocalcaemia: Affected/At Risk: 1/21
- Hypocalcaemia: Affected/At Risk (%): (4.76%)
- Hypogonadism: # Events: 0
- Hypogonadism: Affected/At Risk: 0/21
- Hypogonadism: Affected/At Risk (%): (0%)
- Hypokalaemia: # Events: 0
- Hypokalaemia: Affected/At Risk: 0/21
- Hypokalaemia: Affected/At Risk (%): (0%)
- Hypomagnesaemia: # Events: 1
- Hypomagnesaemia: Affected/At Risk: 1/21
- Hypomagnesaemia: Affected/At Risk (%): (4.76%)
- Hyponatraemia: # Events: 2
- Hyponatraemia: Affected/At Risk: 2/21
- Hyponatraemia: Affected/At Risk (%): (9.52%)
- Hypophosphataemia: # Events: 1
- Hypophosphataemia: Affected/At Risk: 1/21
- Hypophosphataemia: Affected/At Risk (%): (4.76%)
- Hypothermia: # Events: 0
- Hypothermia: Affected/At Risk: 0/21
- Hypothermia: Affected/At Risk (%): (0%)
- Hypothyroidism: # Events: 4
- Hypothyroidism: Affected/At Risk: 3/21
- Hypothyroidism: Affected/At Risk (%): (14.29%)
- Hypoxia: # Events: 3
- Hypoxia: Affected/At Risk: 3/21
- Hypoxia: Affected/At Risk (%): (14.29%)
- Impaired healing: # Events: 0
- Impaired healing: Affected/At Risk: 0/21
- Impaired healing: Affected/At Risk (%): (0%)
- Influenza like illness: # Events: 0
- Influenza like illness: Affected/At Risk: 0/21
- Influenza like illness: Affected/At Risk (%): (0%)
- Influenza: # Events: 2
- Influenza: Affected/At Risk: 2/21
- Influenza: Affected/At Risk (%): (9.52%)
- Insomnia: # Events: 3
- Insomnia: Affected/At Risk: 3/21
- Insomnia: Affected/At Risk (%): (14.29%)
- Irritability: # Events: 0
- Irritability: Affected/At Risk: 0/21
- Irritability: Affected/At Risk (%): (0%)
- Joint range of motion decreased: # Events: 1
- Joint range of motion decreased: Affected/At Risk: 1/21
- Joint range of motion decreased: Affected/At Risk (%): (4.76%)
- Lacrimation increased: # Events: 0
- Lacrimation increased: Affected/At Risk: 0/21
- Lacrimation increased: Affected/At Risk (%): (0%)
- Leukaemia recurrent: # Events: 0
- Leukaemia recurrent: Affected/At Risk: 0/21
- Leukaemia recurrent: Affected/At Risk (%): (0%)
- Leukocytosis: # Events: 1
- Leukocytosis: Affected/At Risk: 1/21
- Leukocytosis: Affected/At Risk (%): (4.76%)
- Ligament sprain: # Events: 0
- Ligament sprain: Affected/At Risk: 0/21
- Ligament sprain: Affected/At Risk (%): (0%)
- Limb injury: # Events: 1
- Limb injury: Affected/At Risk: 1/21
- Limb injury: Affected/At Risk (%): (4.76%)
- Macular degeneration: # Events: 0
- Macular degeneration: Affected/At Risk: 0/21
- Macular degeneration: Affected/At Risk (%): (0%)
- Migraine: # Events: 0
- Migraine: Affected/At Risk: 0/21
- Migraine: Affected/At Risk (%): (0%)
- Muscle spasms: # Events: 6
- Muscle spasms: Affected/At Risk: 6/21
- Muscle spasms: Affected/At Risk (%): (28.57%)
- Muscle spasticity: # Events: 1
- Muscle spasticity: Affected/At Risk: 1/21
- Muscle spasticity: Affected/At Risk (%): (4.76%)
- Muscular weakness: # Events: 2
- Muscular weakness: Affected/At Risk: 2/21
- Muscular weakness: Affected/At Risk (%): (9.52%)
- Musculoskeletal chest pain: # Events: 1
- Musculoskeletal chest pain: Affected/At Risk: 1/21
- Musculoskeletal chest pain: Affected/At Risk (%): (4.76%)
- Myalgia: # Events: 3
- Myalgia: Affected/At Risk: 3/21
- Myalgia: Affected/At Risk (%): (14.29%)
- Nail disorder: # Events: 0
- Nail disorder: Affected/At Risk: 0/21
- Nail disorder: Affected/At Risk (%): (0%)
- Nasal congestion: # Events: 1
- Nasal congestion: Affected/At Risk: 1/21
- Nasal congestion: Affected/At Risk (%): (4.76%)
- Nausea: # Events: 12
- Nausea: Affected/At Risk: 9/21
- Nausea: Affected/At Risk (%): (42.86%)
- Neck pain: # Events: 0
- Neck pain: Affected/At Risk: 0/21
- Neck pain: Affected/At Risk (%): (0%)
- Nephrotic syndrome: # Events: 0
- Nephrotic syndrome: Affected/At Risk: 0/21
- Nephrotic syndrome: Affected/At Risk (%): (0%)
- Neuropathy peripheral: # Events: 2
- Neuropathy peripheral: Affected/At Risk: 1/21
- Neuropathy peripheral: Affected/At Risk (%): (4.76%)
- Neutrophil count decreased: # Events: 1
- Neutrophil count decreased: Affected/At Risk: 1/21
- Neutrophil count decreased: Affected/At Risk (%): (4.76%)
- Nocturia: # Events: 0
- Nocturia: Affected/At Risk: 0/21
- Nocturia: Affected/At Risk (%): (0%)
- Non-cardiac chest pain: # Events: 1
- Non-cardiac chest pain: Affected/At Risk: 1/21
- Non-cardiac chest pain: Affected/At Risk (%): (4.76%)
- Obesity: # Events: 0
- Obesity: Affected/At Risk: 0/21
- Obesity: Affected/At Risk (%): (0%)
- Oedema peripheral: # Events: 6
- Oedema peripheral: Affected/At Risk: 6/21
- Oedema peripheral: Affected/At Risk (%): (28.57%)
- Oedema: # Events: 0
- Oedema: Affected/At Risk: 0/21
- Oedema: Affected/At Risk (%): (0%)
- Oesophageal ulcer: # Events: 0
- Oesophageal ulcer: Affected/At Risk: 0/21
- Oesophageal ulcer: Affected/At Risk (%): (0%)
- Oral candidiasis: # Events: 0
- Oral candidiasis: Affected/At Risk: 0/21
- Oral candidiasis: Affected/At Risk (%): (0%)
- Oropharyngeal pain: # Events: 1
- Oropharyngeal pain: Affected/At Risk: 1/21
- Oropharyngeal pain: Affected/At Risk (%): (4.76%)
- Orthopnoea: # Events: 0
- Orthopnoea: Affected/At Risk: 0/21
- Orthopnoea: Affected/At Risk (%): (0%)
- Osteonecrosis: # Events: 0
- Osteonecrosis: Affected/At Risk: 0/21
- Osteonecrosis: Affected/At Risk (%): (0%)
- Osteopenia: # Events: 0
- Osteopenia: Affected/At Risk: 0/21
- Osteopenia: Affected/At Risk (%): (0%)
- Osteoporosis: # Events: 0
- Osteoporosis: Affected/At Risk: 0/21
- Osteoporosis: Affected/At Risk (%): (0%)
- Overdose: # Events: 0
- Overdose: Affected/At Risk: 0/21
- Overdose: Affected/At Risk (%): (0%)
- Pain in extremity: # Events: 5
- Pain in extremity: Affected/At Risk: 4/21
- Pain in extremity: Affected/At Risk (%): (19.05%)
- Pain: # Events: 1
- Pain: Affected/At Risk: 1/21
- Pain: Affected/At Risk (%): (4.76%)
- Palpitations: # Events: 1
- Palpitations: Affected/At Risk: 1/21
- Palpitations: Affected/At Risk (%): (4.76%)
- Paraesthesia: # Events: 1
- Paraesthesia: Affected/At Risk: 1/21
- Paraesthesia: Affected/At Risk (%): (4.76%)
- Participants with TEAE: 20 (95%) participants
- Participants with TESAE: 13 (62%) participants
- Pericardial effusion: # Events: 0
- Pericardial effusion: Affected/At Risk: 0/21
- Pericardial effusion: Affected/At Risk (%): (0%)
- Peripheral coldness: # Events: 0
- Peripheral coldness: Affected/At Risk: 0/21
- Peripheral coldness: Affected/At Risk (%): (0%)
- Peripheral sensory neuropathy: # Events: 0
- Peripheral sensory neuropathy: Affected/At Risk: 0/21
- Peripheral sensory neuropathy: Affected/At Risk (%): (0%)
- Phlebitis: # Events: 0
- Phlebitis: Affected/At Risk: 0/21
- Phlebitis: Affected/At Risk (%): (0%)
- Photophobia: # Events: 2
- Photophobia: Affected/At Risk: 2/21
- Photophobia: Affected/At Risk (%): (9.52%)
- Platelet count decreased: # Events: 0
- Platelet count decreased: Affected/At Risk: 0/21
- Platelet count decreased: Affected/At Risk (%): (0%)
- Pleural effusion: # Events: 1
- Pleural effusion: Affected/At Risk: 1/21
- Pleural effusion: Affected/At Risk (%): (4.76%)
- Pneumonia respiratory syncytial viral: # Events: 0
- Pneumonia respiratory syncytial viral: Affected/At Risk: 0/21
- Pneumonia respiratory syncytial viral: Affected/At Risk (%): (0%)
- Pneumonia: # Events: 0
- Pneumonia: Affected/At Risk: 0/21
- Pneumonia: Affected/At Risk (%): (0%)
- Pollakiuria: # Events: 0
- Pollakiuria: Affected/At Risk: 0/21
- Pollakiuria: Affected/At Risk (%): (0%)
- Presyncope: # Events: 0
- Presyncope: Affected/At Risk: 0/21
- Presyncope: Affected/At Risk (%): (0%)
- Productive cough: # Events: 2
- Productive cough: Affected/At Risk: 1/21
- Productive cough: Affected/At Risk (%): (4.76%)
- Proteinuria: # Events: 0
- Proteinuria: Affected/At Risk: 0/21
- Proteinuria: Affected/At Risk (%): (0%)
- Pruritus: # Events: 0
- Pruritus: Affected/At Risk: 0/21
- Pruritus: Affected/At Risk (%): (0%)
- Pseudomonas infection: # Events: 0
- Pseudomonas infection: Affected/At Risk: 0/21
- Pseudomonas infection: Affected/At Risk (%): (0%)
- Pulmonary mass: # Events: 1
- Pulmonary mass: Affected/At Risk: 1/21
- Pulmonary mass: Affected/At Risk (%): (4.76%)
- Pyrexia: # Events: 3
- Pyrexia: Affected/At Risk: 3/21
- Pyrexia: Affected/At Risk (%): (14.29%)
- Rash erythematous: # Events: 0
- Rash erythematous: Affected/At Risk: 0/21
- Rash erythematous: Affected/At Risk (%): (0%)
- Rash maculo-papular: # Events: 0
- Rash maculo-papular: Affected/At Risk: 0/21
- Rash maculo-papular: Affected/At Risk (%): (0%)
- Rash pustular: # Events: 0
- Rash pustular: Affected/At Risk: 0/21
- Rash pustular: Affected/At Risk (%): (0%)
- Rash: # Events: 1
- Rash: Affected/At Risk: 1/21
- Rash: Affected/At Risk (%): (4.76%)
- Red blood cells urine positive: # Events: 0
- Red blood cells urine positive: Affected/At Risk: 0/21
- Red blood cells urine positive: Affected/At Risk (%): (0%)
- Renal failure: # Events: 0

Reference: patent US20250255867A1 (Kadmon Corporation, LLC, priority 2022, published 2025)
